Test results from patent publication US7396842B2, “Five-membered cyclic compounds” (Dianippon Sumitomo Pharma Co., Ltd., priority 2002, dated 2008).
Read-outs that look alike come from different tables or passages of the source. Values belong to the compound of their own block, whether it stands above or below them.

How the values were obtained:
[1] = target: T1, SMBS on rat lung membranes (Rattus norvegicus, UniProt A0A8I6A822); experiment: Receptor binding of the compound in rat lung membranes ([125I]-iodo-cyanopindolol ligand binding assay; Experiments 1 and 4); settings: rat lung membranes, read-out: Binding Activity (30 μM)
T1 construct: from tissue; host or cells: rat lung membranes (SD male rats)
T1 sequence (A0A8I6A822 27-587): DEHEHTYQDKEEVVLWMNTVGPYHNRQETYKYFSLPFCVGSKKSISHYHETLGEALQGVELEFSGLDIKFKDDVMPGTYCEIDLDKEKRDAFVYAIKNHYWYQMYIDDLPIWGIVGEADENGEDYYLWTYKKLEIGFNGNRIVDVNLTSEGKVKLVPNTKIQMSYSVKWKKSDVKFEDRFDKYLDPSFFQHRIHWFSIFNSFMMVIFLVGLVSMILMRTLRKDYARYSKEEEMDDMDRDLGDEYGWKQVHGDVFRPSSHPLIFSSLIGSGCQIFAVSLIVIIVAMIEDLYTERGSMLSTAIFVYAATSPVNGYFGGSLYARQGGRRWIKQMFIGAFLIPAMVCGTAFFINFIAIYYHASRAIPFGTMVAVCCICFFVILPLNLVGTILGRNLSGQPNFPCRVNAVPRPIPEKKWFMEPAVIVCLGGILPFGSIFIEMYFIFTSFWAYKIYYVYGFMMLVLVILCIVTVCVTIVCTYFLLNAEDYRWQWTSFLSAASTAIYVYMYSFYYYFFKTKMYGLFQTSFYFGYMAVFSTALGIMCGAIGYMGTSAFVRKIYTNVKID

[2] = system: leukocyte infiltration into the airway; experiment: Leukocyte infiltration into the airway in the guinea pig models (BALF cell counts); type: in vivo
Protocol: Evaluation of the Compound in the Leukocyte Infiltration into the Airway in the Guinea Pig Models:
In the same manner to in Experiment 2, the sensitization, the antigen challenge, and the administration of pyrilamine maleate and a medicament were carried out.
The recovery of bronchoalveolar lavage fluid (BALF) was carried out at 24 hours after the antigen challenge. Namely, the animals were anesthetized by intraperitoneal administration of pentbarbital (50 mg/ml) at a dose of 0.5 ml per animal, and the animals were subjected to an abdominal operation after sufficiently anesthetized. The perineal abdominal aorta was cut and the animals were killed by venesection. The diaphragm was incised and the neck was also incised to expose the trachea. After the trachea was cut, a cannula was inserted thereto, and an ice-cooled saline solution (5 ml) was injected by using a 5 ml syringe. Then, the injection and the suction were repeated three times by using the same solution for recovery. The fluid was collected and filtered through a stainless mesh, and collected in a tube on the ice. These procedures were repeated twice, and the recovery fluid was collected into the same tube (cases wherein the fluid volume was not more than 7 ml were not employed as data).
After the recovery, the fluid volume to be recovered was measured with the eye, and the fluid was centrifuged at 1500 rpm at 4° C. for 3 minutes, and the supernant was discarded. The residue was subjected to hemolysis under hypooncotic conditions. The mixture was centrifuged at 1500 rpm at 4° C. for 3 minutes, and the supernatant was discarded. The cells thus collected were suspended in a phosphoric buffered saline solution (PBS (−))(1 ml) containing a 0.5% BSA. The total number of cells were counted in this suspension by an automated leukocyte counter. After the measurement, a slide preparation was prepared by using Cytospin, which was further stained with a Diff Quick Stainning Kit.

Hartley male guinea pigs = experiment: Late asthmatic model in guinea pigs (ovalbumin sensitization and challenge, respiratory function sGaw); type: in vivo, guinea pig
Protocol: Experiment 2 Evaluation of the Compound in Late Asthmatic Model in Guinea Pigs
The evaluation test was carried out using the compound obtained in Example 1.
Hartley male guinea pigs (purchased from Japan SLC) were prefed for about 1 week after purchasing them, and exposed to a 2% (w/v) solution of ovalbumin (OA) in saline solution in a plastic box (4 animals/box) for 5 minutes and made them inhale it by using an ultrasonic nebulizer (OMRON NE-U12, conditions: maximum amount of atomization and maximum airflow) for sensitization (Day 0). The animals were subjected to the same procedures on the 7th day. On the 14th and 15th days, each one animal was made to inhale a 2% OA for 5 minutes for antigen-challenge. One hour prior to the antigen-challenge, pyrilamine maleate (antihistamic agent; dissolved in saline solution, 10 mg/2 ml/kg) was intraperitoneally administered to each animal. A test compound was suspended in a 0.5% methyl cellulose (MC), and administered intraperitoneally twice to each animal at 2 hours prior to, and 6 hours after the antigen-challenge at a dose of 100 mg/5 ml/kg. To the control group, a 0.5% MC was administered in the same manner instead of a test compound.
The measurement and analysis of the respiratory function were carried out by a modified method of the method of Hutson et al., (cf., Penny A. Hutson et al., Am Rev Respir Dis 1988 137, 548-557). Before the antigen-challenge (before the administration of the drug) and 5 minutes, and 3, 17 and 20 hours after the antigen-challenge, the respiratory function of each animal was measured, and the wave pattern was recorded using Maclab Chart v 3.4 (AD instruments), and the analysis of the respiratory function was carried out later by using thereof. The specific airway conductance (sGaw) was calculated, and the degree of the improvement of the respiratory function was evaluated by using it as an index.

[3] = Table 44, concentration tested 30 μM, Experiment 4
[4] = ratio of inhibiting the specific binding of [125I]-iodo-cyanopindolol, test concentration 30 μM
[5] = BALF recovered at 24 hours after the antigen challenge, guinea pig
[6] = versus control group, BALF 24 hours after antigen challenge, 100 mg/5 ml/kg i.p. twice
[7] = Table 43, concentration tested 30 μM, Experiment 4

inhibition at 30 µM [1, 3]: 97%
melting point: 131 to 132 °C
SMILES: COc1ccc(C(=O)/N=c2\scc(-c3ccc(OC(F)(F)F)cc3)n2CCCNC(C)=O)c(OC)c1 [Example 446, N-[3-[3-(Acetoamino)propyl]-4-[4-(trifluoromethoxy)phenyl]-1,3-thiazol-2(3H)-ylidene]-2,4-dimethoxybenzamide]

inhibition at 30 µM [1, 4]: 42%
SMILES: COc1ccc(C(=O)/N=c2\scc(C(=O)Nc3ccc(Cl)cc3)n2CCCNC(C)=O)c(OC)c1 [Example 461]

inhibition at 30 µM [1, 4]: 87%
SMILES: COc1ccc(C(=O)/N=c2\scc(-c3ccc(OC(F)(F)F)cc3)n2CCCNC(=N)N)c(OC)c1 [Example 534]

inhibition at 30 µM [1, 7]: 89%
SMILES: COCCNC(=O)NCCCn1c(-c2ccc(OC(F)(F)F)cc2)cs/c1=N\Cc1ccc(Cl)cc1 [Example 409, N-{3-[2-[(4-Chlorobenzyl)imino]-4-[4-(trifluoromethoxy)phenyl]-1,3-thiazol-3(2H)-yl]propyl}-N′-(2-methoxyethyl)urea]

inhibition at 30 µM [1, 3]: 87%
SMILES: CC(=O)NCCCn1c(-c2ccc(OC(F)(F)F)cc2)cs/c1=N\C(=O)CC1CCCC1 [Example 458]

inhibition at 30 µM [1, 3]: 93%
SMILES: COc1ccc(C(=O)/N=c2\scc(C(=O)NCCCCc3ccccc3)n2CCCN)c(OC)c1 [Example 435]

inhibition at 30 µM [1, 4]: 10%
SMILES: COc1ccc(C(=O)/N=c2\scc(C(=O)NCc3ccc(Cl)cc3)n2CCCNC(C)=O)c(OC)c1 [Example 463]

inhibition at 30 µM [1, 3]: 84%
SMILES: CC(=O)NCCCn1c(-c2ccc(OC(F)(F)F)cc2)cs/c1=N\C(=O)c1ccncc1 [Example 452]

The remaining lines, values behind:

SMILES: Cl.NCCCn1c(-c2ccc(Br)cc2)csc1=Nc1ccccc1
melting point: 241 to 242 °C

SMILES: CN(C)CCCn1c(-c2ccc(Br)cc2)csc1=Nc1ccccc1 [Example 1, N-{4-(4-bromophenyl)-3-[3-(dimethylamino)propyl]thiazol-2(3H)-ylidene}aniline]
inhibition at 30 µM ([1]; Table 37, compound concentration 30 μM, [125I]-iodo-cyanopindolol, Experiment 1): 61.3%
Number of eosinophils (×10^5) [2, 5]: 13.8 ± 5.1 ×10^5
Number of lymphocytes (×10^5) [2, 5]: 2.0 ± 0.6 ×10^5
Total number of cells (×10^5) [2, 5]: 62.1 ± 8.6 ×10^5
reduction of number of eosinophils in BALF [2, 6]: 79%
reduction of number of lymphocytes in BALF [2, 6]: 70%
reduction of total number of cells in BALF [2, 6]: 82%
inhibitory rate of LAR (from rate of change of sGaw) (Hartley male guinea pigs; 20-hr value, versus control group, 100 mg/5 ml/kg i.p. twice): about 60%
Rate of change of sGaw, 5 minutes (Hartley male guinea pigs; 5 minutes after antigen challenge (IAR), 100 mg/5 ml/kg i.p. 2 h prior to and 6 h after challenge): −33.8 ± 6.8%
Rate of change of sGaw, 20 hours (Hartley male guinea pigs; 20 hours after antigen challenge (LAR), 100 mg/5 ml/kg i.p. 2 h prior to and 6 h after challenge): −14.2±15.0%
inhibition of IAR induced immediately after the antigen challenge (Hartley male guinea pigs; result in words, 100 mg/5 ml/kg i.p. twice): tendency of inhibiting the IAR

SMILES: CCCCCCNC(=O)NCCCn1c(-c2ccc(N3CCOCC3)cc2)cs/c1=N\c1ccc(F)cc1 [Example 284]
inhibition at 30 µM ([1]; Table 42, concentration tested 30 μM, Experiment 4): 77%

SMILES: CCNC(=O)NCCCn1c(CN(C)Cc2ccc(Cl)cc2)cs/c1=N\c1ccc(OC(F)(F)F)cc1 [Example 303]
inhibition at 30 µM [1, 7]: 23%

SMILES: COc1ccc(C/N=c2\scc(-c3ccc(OC(F)(F)F)cc3)n2CCCNC(C)=O)c(OC)c1 [Example 373, N-{3-[2-[(2,4-dimethoxybenzyl)imino]-4-[4-(trifluoromethoxy)phenyl]-1,3-thiazol-3(2H)-yl]propyl}acetamide]
inhibition at 30 µM [1, 7]: 90%

SMILES: COCCOCCNCCCn1c(-c2ccc(F)cc2)cs/c1=N\c1ccc(Cl)cc1OC [Example 316]
inhibition at 30 µM [1, 7]: 102%
